Test system: Adult human dermal fibroblasts
Experiment: Collagen type I in human dermal fibroblast conditioned media
Assay type: cell-based
Settings: MAP 100 ug/ml; Vit. C 10 ug/ml; FIG. 1
Procedure: Adult human dermal fibroblasts (facial cells, from Cell Applications, Inc. San Diego, Calif., Catalog #106-05A, Lot 1339) were incubated for seventy-two hours in Fibroblast Growth Serum (Cell Applications, cat. #116-500). Four test formulations, each formulation used at three final test sample dilutions of 2.5%, 0.5% and 0.05%, were added to the incubated cells. All concentrations expressed in weight/weight unless otherwise noted: • (i) Test Formulation #1, CHL-01-057 (labeled “1”) served as a control and contained 90% purified water and 10% butylene glycol; • (ii) Test Formulation #2, CHL-01-053 (labeled “2”) containing 0.2% of 1-Disodium Copper Chlorin E4 in 10% butylene glycol and 89.8% purified water; • (iii) Test Formulation #3, (labeled #3) CHL-01-0 51 containing 0.2% Sodium Copper Chlorophyllin complex, USP in 10% butylene glycol and 89.8% purified water; • (iv) Test Formulation #4, CHL-01-055 (labeled “4”) containing 0.2% Sodium Zinc Chlorophyllin in 10% butylene glycol and 89.8% purified water. Based on the final dilutions, the amount of chlorin, chlorophyllin, or control compound added to the cell culture was 50 ppm, 10 ppm, and 1 ppm (ppm=parts per million by weight). Each of the above formulations was prepared by adding butylene glycol to water and mixing on a heating plate with a magnetic stirrer until the glycol fully dissolved. […]

Compound | stimulatory activity on type 1 collagen production (positive controls)
O=C1O[C@H]([C@@H](O)CO)C([O-])=C1OP(=O)([O-])[O-].O=C1O[C@H]([C@@H](O)CO)C([O-])=C1OP(=O)([O-])[O-].[Mg+2].[Mg+2].[Mg+2] [Magnesium Ascorbyl Phosphate, magnesium ascorbyl phosphate] | strong stimulatory activity
O=C1O[C@H]([C@@H](O)CO)C(O)=C1O [vitamin C, ascorbic acid] | strong stimulatory activity

Reference: patent US20120283235A1, “Dermatologic and Cosmetic Compositions” (DISCOVERY PARTNERS LLC, priority 2009, published 2012)
